Measured values as given in patent US11878970B2, “Allosteric chromenone inhibitors of phosphoinositide 3-kinase (PI3K) for the treatment of disease” (Petra Pharma Corporation, priority 2021, dated 2024).

Assays:
[1] = target: T1, PI3K-α (PIK3CA) wild-type (WT), p110α/p85α complex (Homo sapiens, UniProt P42336); experiment: PI3K-alpha kinase (PIK3CA) biochemical activity, ADP-Glo, wild-type
T1 construct: Recombinant, catalytically active human full length PIK3KA Wild-type and H1047R mutant; 6×His (N); purchased EMD Millipore Sigma 14-602M
How it was run: (§1)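 ADP formation measured by ADP-Glo luminescence after reaction at 27 °C to about 10% ATP turnover, using 20 uM ATP, 50 uM PIP2diC8 or soy PI lipid, HEPES pH 7.4 with MgCl2. Enzyme (1-5 nM WT or H1047R p110α/p85α) and compound preincubated 1 h first; 10-point 1:3 curves fitted four-parameter for IC50.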

[2] = target: T2, PI3K-α (PIK3CA) H1047R mutant, p110α/p85α complex (Homo sapiens, UniProt P42336, H1047R); experiment: PI3K-alpha kinase (PIK3CA) biochemical activity, ADP-Glo, H1047R mutant
T2 construct: Recombinant, catalytically active human full length PIK3KA Wild-type and H1047R mutant; 6×His (N); purchased EMD Millipore Sigma 14-792M
T2 sequence (P42336 whole entry H1047R): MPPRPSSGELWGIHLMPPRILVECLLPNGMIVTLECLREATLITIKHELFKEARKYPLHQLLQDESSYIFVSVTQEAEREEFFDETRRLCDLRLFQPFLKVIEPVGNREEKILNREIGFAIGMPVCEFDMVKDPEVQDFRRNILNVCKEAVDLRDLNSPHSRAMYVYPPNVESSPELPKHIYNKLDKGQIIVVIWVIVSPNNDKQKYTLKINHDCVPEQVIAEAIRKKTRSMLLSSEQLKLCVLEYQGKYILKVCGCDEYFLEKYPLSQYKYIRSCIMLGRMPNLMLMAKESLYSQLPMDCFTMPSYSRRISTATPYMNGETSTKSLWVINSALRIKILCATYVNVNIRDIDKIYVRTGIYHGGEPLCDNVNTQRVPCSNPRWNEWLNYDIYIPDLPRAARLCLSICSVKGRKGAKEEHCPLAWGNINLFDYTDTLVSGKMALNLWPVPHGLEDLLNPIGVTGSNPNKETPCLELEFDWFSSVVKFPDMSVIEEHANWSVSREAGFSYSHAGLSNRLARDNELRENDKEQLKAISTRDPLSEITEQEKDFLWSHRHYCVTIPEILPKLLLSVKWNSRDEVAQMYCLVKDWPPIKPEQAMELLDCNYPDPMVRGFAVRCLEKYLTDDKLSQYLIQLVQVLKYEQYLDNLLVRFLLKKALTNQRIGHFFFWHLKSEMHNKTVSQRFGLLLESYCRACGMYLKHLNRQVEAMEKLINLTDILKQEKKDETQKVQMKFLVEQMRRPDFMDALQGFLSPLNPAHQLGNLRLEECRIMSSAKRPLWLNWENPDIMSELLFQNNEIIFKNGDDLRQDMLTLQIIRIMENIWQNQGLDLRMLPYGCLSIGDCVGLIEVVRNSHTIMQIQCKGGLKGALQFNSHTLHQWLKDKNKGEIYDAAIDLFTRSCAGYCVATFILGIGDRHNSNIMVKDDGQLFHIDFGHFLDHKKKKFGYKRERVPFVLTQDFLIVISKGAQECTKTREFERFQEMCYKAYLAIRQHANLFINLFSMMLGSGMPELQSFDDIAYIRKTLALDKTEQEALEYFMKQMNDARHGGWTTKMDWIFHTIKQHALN
T2 sequence (P27986 whole entry partner): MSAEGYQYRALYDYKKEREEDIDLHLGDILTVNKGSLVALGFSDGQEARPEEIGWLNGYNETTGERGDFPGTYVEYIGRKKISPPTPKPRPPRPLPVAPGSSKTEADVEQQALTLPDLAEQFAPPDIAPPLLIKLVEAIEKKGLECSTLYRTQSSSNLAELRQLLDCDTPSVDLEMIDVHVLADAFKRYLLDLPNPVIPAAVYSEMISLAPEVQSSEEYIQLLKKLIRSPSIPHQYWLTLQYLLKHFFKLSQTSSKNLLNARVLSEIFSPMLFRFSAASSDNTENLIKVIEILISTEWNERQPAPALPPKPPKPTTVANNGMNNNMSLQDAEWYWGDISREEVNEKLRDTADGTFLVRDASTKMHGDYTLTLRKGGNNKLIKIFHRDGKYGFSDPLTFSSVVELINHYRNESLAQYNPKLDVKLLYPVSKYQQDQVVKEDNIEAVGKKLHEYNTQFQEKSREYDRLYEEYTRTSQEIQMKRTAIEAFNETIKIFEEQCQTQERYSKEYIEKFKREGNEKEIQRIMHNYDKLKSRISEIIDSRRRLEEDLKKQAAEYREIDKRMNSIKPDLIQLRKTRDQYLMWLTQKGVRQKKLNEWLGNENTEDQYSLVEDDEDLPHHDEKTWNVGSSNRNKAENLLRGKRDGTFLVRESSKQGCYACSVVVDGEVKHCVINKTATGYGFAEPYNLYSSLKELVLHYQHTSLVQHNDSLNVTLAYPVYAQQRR
How it was run: as §1

[3] = PIP2diC8 lipid substrate (footnote 1)

SMILES	IC50 ([1]; Soy PI lipid substrate)	IC50 ([2]; Soy PI lipid substrate)	IC50 [1, 3]	IC50 [2, 3]
Cc1cc(C(C)Nc2ccccc2C(=O)O)c2oc(-c3ccc4nn(C)cc4c3)c(C(F)(F)F)c(=O)c2c1 (single isomer, unassigned) [Example 208, 2-[1-[6-Methyl-2-(2-methylindazol-5-yl)-4-oxo-3-(trifluoromethyl)chromen-8-yl]ethylamino]benzoic acid]	< 0.5 µM	< 0.5 µM	–	–
Cc1cc(C(C)Nc2ccccc2C(=O)O)c2oc(-c3nccc4cnn(C)c34)cc(=O)c2c1 (single isomer, unassigned) [Example 96, 2-[1-[6-Methyl-2-(1-methylpyrazolo[3,4-c]pyridin-7-yl)-4-oxo-chromen-8-yl]ethylamino]benzoic acid]	5 to 10 µM	1 to 5 µM	–	–
Cc1cc(C(C)Nc2ccc(C)nc2C(=O)O)c2oc(-c3ccc4nn(C)cc4c3)cc(=O)c2c1 (single isomer, unassigned) [Example 180, 6-Methyl-3-[1-[6-methyl-2-(2-methylindazol-5-yl)-4-oxo-chromen-8-yl]ethylamino]pyridine-2-carboxylic acid]	1 to 5 µM	< 0.5 µM	–	–
Cc1cc(C(C)Nc2ccccc2C(=O)O)c2oc(-c3ccc4cnncc4c3)cc(=O)c2c1 (single isomer, unassigned) [Example 47, 2-[1-(6-Methyl-4-oxo-2-phthalazin-6-yl-chromen-8-yl)ethylamino]benzoic acid]	1 to 5 µM	< 0.5 µM	–	–
Cc1cc(C(C)Nc2ccccc2C(=O)O)c2oc(-c3ccc4nccn4n3)cc(=O)c2c1 (stereo not shown) [Example 15, 2-[1-(2-Imidazo[1,2-b]pyridazin-6-yl-6-methyl-4-oxo-chromen-8-yl)ethylamino]benzoic acid]	1 to 5 µM	< 0.5 µM	–	–
Cc1cc(C(C)Nc2ccccc2C(=O)O)c2oc(-c3ccc4c(c3)c(C)nn4C)cc(=O)c2c1 (single isomer, unassigned) [Example 165, 2-[1-[2-(1,3-Dimethylindazol-5-yl)-6-methyl-4-oxo-chromen-8-yl]ethylamino]benzoic acid]	< 0.5 µM	< 0.5 µM	–	–
Cc1cc(C(C)Nc2ccccc2C(=O)O)c2oc(-c3ccn4c(C)nnc4c3)cc(=O)c2c1 (single isomer, unassigned) [Example 77, 2-[1-[6-Methyl-2-(3-methyl-[1,2,4]triazolo[4,3-a]pyridin-7-yl)-4-oxo-chromen-8-yl]ethylamino]benzoic acid]	5 to 10 µM	< 0.5 µM	–	–
Cc1c(-c2cc3ccccc3[nH]2)oc2c(C(C)Nc3ccccc3C(=O)O)cc(F)cc2c1=O (single isomer, unassigned) [Example 129, 2-[1-[6-Fluoro-2-(1H-indol-2-yl)-3-methyl-4-oxo-chromen-8-yl]ethylamino]benzoic acid]	0.5 to 1 µM	< 0.5 µM	–	–
Cc1cc(C(C)Nc2ccccc2C(=O)O)c2oc(-c3cc4ccncc4o3)cc(=O)c2c1 (single isomer, unassigned) [Example 39, 2-[1-(2-Furo[2,3-c]pyridin-2-yl-6-methyl-4-oxo-chromen-8-yl)ethylamino]benzoic acid]	1 to 5 µM	< 0.5 µM	–	–
Cc1cc(C(C)Nc2ccccc2C(=O)O)c2oc(-c3ccc4cc[nH]c4n3)cc(=O)c2c1 (stereo not shown) [Example 14, 2-[1-[6-Methyl-4-oxo-2-(1H-pyrrolo[2,3-b]pyridin-6-yl)chromen-8-yl]ethylamino]benzoic acid]	1 to 5 µM	< 0.5 µM	–	–
Cc1cc(C(C)Nc2ccccc2C(=O)O)c2oc(-c3cnc4cn(C)nc4c3)cc(=O)c2c1 (single isomer, unassigned) [Example 44, 2-[1-[6-Methyl-2-(2-methylpyrazolo[4,3-b]pyridin-6-yl)-4-oxo-chromen-8-yl]ethylamino]benzoic acid]	5 to 10 µM	1 to 5 µM	–	–
Cc1cn2nc(-c3cc(=O)c4cc(C(F)(F)F)cc(C(C)Nc5ccccc5C(=O)O)c4o3)ccc2n1 (single isomer, unassigned) [Example 101, 2-[1-[2-(2-Methylimidazo[1,2-b]pyridazin-6-yl)-4-oxo-6-(trifluoromethyl)chromen-8-yl]ethylamino]benzoic acid]	1 to 5 µM	< 0.5 µM	–	–
Cc1cc(C(C)Nc2ccccc2C(=O)O)c2oc(-n3ncc4cc(F)ccc43)cc(=O)c2c1 (single isomer, unassigned) [Example 89, 2-[1-[2-(5-Fluoroindazol-1-yl)-6-methyl-4-oxo-chromen-8-yl]ethylamino]benzoic acid]	1 to 5 µM	< 0.5 µM	–	–

Second part, the compound after the results:

IC50 ([1]; Soy PI lipid substrate)	IC50 ([2]; Soy PI lipid substrate)	IC50 [1, 3]	IC50 [2, 3]	SMILES
1 to 5 µM	< 0.5 µM	–	–	Cc1cc(C(C)Nc2ccccc2C(=O)O)c2oc(-c3ccc4c(n3)N(C)C(=O)C4)cc(=O)c2c1 (single isomer, unassigned) [Example 141, 2-[1-[6-Methyl-2-(1-methyl-2-oxo-3H-pyrrolo[2,3-b]pyridin-6-yl)-4-oxo-chromen-8-yl]ethylamino]benzoic acid]
1 to 5 µM	< 0.5 µM	–	–	Cc1cc(C(C)Nc2ccccc2C(=O)O)c2oc(-c3ccc4ccnn4c3)cc(=O)c2c1 (single isomer, unassigned) [Example 67, 2-[1-(6-Methyl-4-oxo-2-pyrazolo[1,5-a]pyridin-6-yl-chromen-8-yl)ethylamino]benzoic acid]
1 to 5 µM	< 0.5 µM	–	–	Cc1cc(C(C)Nc2ccccc2C(=O)O)c2oc(-c3cnc4sc(C)nc4c3)cc(=O)c2c1 (single isomer, unassigned) [Example 81, 2-[1-[6-Methyl-2-(2-methylthiazolo[5,4-b]pyridin-6-yl)-4-oxo-chromen-8-yl]ethylamino]benzoic acid]
1 to 5 µM	< 0.5 µM	–	–	Cc1cc(C(C)Nc2ccccc2C(=O)O)c2oc(-c3cnc4nn(C)cc4c3)cc(=O)c2c1 (single isomer, unassigned) [Example 42, 2-[1-[6-Methyl-2-(2-methylpyrazolo[3,4-b]pyridin-5-yl)-4-oxo-chromen-8-yl]ethylamino]benzoic acid]
> 10 µM	0.5 to 1 µM	–	–	Cc1cc(C(C)Nc2ccccc2C(=O)O)c2oc(-c3ccn4cnnc4c3)cc(=O)c2c1 (single isomer, unassigned) [Example 161, 2-[1-[6-Methyl-4-oxo-2-([1,2,4]triazolo[4,3-a]pyridin-7-yl)chromen-8-yl]ethylamino]benzoic acid]
1 to 5 µM	< 0.5 µM	–	–	Cc1cc(C(C)Nc2ccccc2C(=O)O)c2oc(-c3c[nH]c4ccccc34)cc(=O)c2c1 (single isomer, unassigned) [Example 155, 2-[1-[2-(1H-Indol-3-yl)-6-methyl-4-oxo-chromen-8-yl]ethylamino]benzoic acid]
–	–	0.5 to 1 µM	0.5 to 1 µM	Cc1cc(C(C)Nc2ccccc2C(=O)O)c2oc(-c3ccc4[nH]c(C(F)(F)F)cc4c3)cc(=O)c2c1 (stereo not shown) [Example 11, 2-[1-[6-Methyl-4-oxo-2-[2-(trifluoromethyl)-1H-indol-5-yl]chromen-8-yl]ethylamino]benzoic acid]
< 0.5 µM	< 0.5 µM	–	–	Cc1cc(C(C)Nc2ccc(Cl)nc2C(=O)O)c2oc(-c3ccc4nn(C)cc4c3)cc(=O)c2c1 (single isomer, unassigned) [Example 206, 6-Chloro-3-[1-[6-methyl-2-(2-methylindazol-5-yl)-4-oxo-chromen-8-yl]ethylamino]pyridine-2-carboxylic acid]
< 0.5 µM	< 0.5 µM	–	–	Cc1cc(C(C)Nc2ccc(Cl)nc2C(=O)O)c2oc(-c3nn(C)c4ccccc34)cc(=O)c2c1 (single isomer, unassigned) [Example 177, 6-Chloro-3-[1-[6-methyl-2-(1-methylindazol-3-yl)-4-oxo-chromen-8-yl]ethylamino]pyridine-2-carboxylic acid]
1 to 5 µM	< 0.5 µM	–	–	Cc1cc(C(C)Nc2ccccc2C(=O)O)c2oc(-c3ccc4cc(C)nn4c3)cc(=O)c2c1 (single isomer, unassigned) [Example 134, 2-[1-[6-Methyl-2-(2-methylpyrazolo[1,5-a]pyridin-6-yl)-4-oxo-chromen-8-yl]ethylamino]benzoic acid]
